Values of other authors in patent publication US20090047357A1, “METHOD OF PRODUCING DRUG-CONTAINING WAX MATRIX PARTICLES, EXTRUDER TO BE USED IN THE METHOD AND SUSTAINED-RELEASE PREPARATION CONTAINING CILOSTAZOL” (OTSUKA PHARMACEUTICAL CO., LTD., priority 2005, published 2009).

Question: For Cn1c(=O)c2[nH]cnc2n(C)c1=O [theophylline], which water solubility is on record?
Answer: about 0.6 w/v %
